Patent US20230149420A1, “ANTI-INFLAMMATORY IMMUNOENHANCER” (SCENT SCIENCE INTERNATIONAL INC., priority 2020, published 2023)

Tested on: basophils in the peripheral blood
Test: number of basophils in peripheral blood, Siemens Advia 120 (Example 8)
Type: in vivo, C57/BL6 mice
Conditions: 200 μl of 1% solution i.p., blood 16 hr later, vs saline
Method: About 3-month-old C57/BL6 mice were intraperitoneally injected with 200 μl of saline (control) or 1% solution of respective compounds (dissolved in saline). Blood was collected 16 hr later, and the number of basophils in the peripheral blood was measured using Siemens Advia 120.

Row | Compound | number of basophils in the peripheral blood
1 | Cc1oc2ccccc2c1C [2,3-Dimethylbenzofuran] | increases
2 | Cc1ccc(C)o1 [2,5-Dimethylfuran] | increases
3 | CC1CCC(C)O1 (stereo not drawn) [2,5-Dimethyltetrahydrofuran] | increases
4 | Cc1ccc(C)s1 [2,5-Dimethylthiophene] | increases
5 | Cc1cccc(C)n1 [2,6-Lutidine] | increases
6 | CC(=O)c1ncc(C)nc1C [2-Acetyl-3,5-dimethy pyrazine] | increases
7 | CC(=O)c1ccc(C)o1 [2-Acetyl-5-methylfuran] | increases
8 | CC1OCCC1S (stereo not drawn) [2-Methyl-3-tetrahydrofuranthiol] | increases
9 | Cc1ccco1 [2-Methylfuran] | increases
10 | COc1ccc2ncccc2c1 [6-Methoxyquinoline] | increases

Tested on: peripheral blood mononuclear cells (PBMC)
Test: scRNAseq gene expression changes in PBMC cell clusters, control vs 2MT (Example 2)
Type: in vivo, C57/BL6 mice
Conditions: 2MT i.p. vs control, 16 hr
Method: About 3-month-old C57/BL6 mice were intraperitoneally administered with 200 μl of saline (control) or 1% 2MT solution (dissolved in saline). Blood was collected 16 hr later, and peripheral blood mononuclear cells (PBMC) were separated using Ficoll Paque PREMIUM 1.084 (GE Healthcare). A single cell RNA cDNA library was prepared from the separated cells by using the 10× Chromium preparation system, Chromium Single Cell 3′ Library & Gel Bead Kit v3, and sequencing was performed using the illumina HiSeq. The obtained scRNAseq data was analyzed according to the method shown in Non-Patent Literatures 4 and 5. The results of clustering using the gene expression of each cell as an index were visualized by tSNE, and the results are shown in FIG. 1A-C. […] Based on the data of scRNAseq performed in Example 1, the comparison results of the changes in the expression of each gene in the cells present in each cluster between the control conditions and the 2MT administration conditions are shown in FIG. 2. The genes whose expression changed by 2MT stimulation are shown on the top of the table, and the functional categories of the genes are shown above them. The numbers in the table indicate gene expression levels, and the density of shading indicates the degree of increase in gene expression.

Row | Compound | expression levels of Ccr1, Ccr2, Ccr12, and Cxc12 (genes that promote blood cell migration) | expression levels of Lyz2, F13a1, Cd14, Chil3, and Hp (biological defense response) | expression levels of Nfkbia, Nfkbiz, and Socs3 (suppressors of NF-κB and JAK-STAT pathways)
11 | CC1=NCCS1 [2-Methyl-2-thiazoline] | increased | increased | increased

Tested on: basophils in the whole blood cells
Test: ratio of basophils in whole blood cells, Siemens Advia 120 (Example 14)
Type: in vivo, C57/BL6 mice
Conditions: 200 μl of 1% solution i.p., blood 16 hr later, vs saline
Method: About 3-month-old C57/BL6 mice were intraperitoneally injected with 200 μl of saline (control) or 1% solution of respective compounds (dissolved in saline). Blood was collected 16 hr later, and the ratio of basophils in the whole blood cells was measured using Siemens Advia 120.

Row | Compound | ratio of basophils in the whole blood cells
12 | Cc1oc2ccccc2c1C [2,3-Dimethylbenzofuran] | increases
13 | CC1CCC(C)O1 (stereo not drawn) [2,5-Dimethyltetrahydrofuran] | increases
14 | Cc1cccc(C)n1 [2,6-Lutidine] | increases
15 | CC(=O)c1ccc(C)o1 [2-Acetyl-5-methylfuran] | increases
16 | SC1=NCCS1 [2-Mercaptothiazoline] | increases
17 | Cc1ccco1 [2-Methylfuran] | increases
18 | COc1ccc2ncccc2c1 [6-Methoxyquinoline] | increases

Tested on: monocytes in the peripheral blood
Test: flow cytometry of monocytes in peripheral blood, 2MT i.p./odor, corticosterone (Example 3)
Type: in vivo, C57/BL6 mice
Conditions: intraperitoneal injection vs saline i.p., blood 16 hr later
Method: (§1) About 3-month-old C57/BL6 mice were intraperitoneally administered with 200 μl of saline (control) or 1% 2MT solution (dissolved in saline). Blood was collected 16 hr later, and the number of various leukocytes in the peripheral blood was measured by a flow cytometry method by peroxidase staining and a two-angle laser flow cytometry method. The ratios of neutrophils and monocytes in the peripheral blood under respective conditions that were clarified by the measurement are shown.

Row | Compound | number of monocytes
19 | CC1=NCCS1 [2-Methyl-2-thiazoline] | increased
20 | C[C@]12C[C@H](O)[C@H]3[C@@H](CCC4=CC(=O)CC[C@@]43C)[C@@H]1CC[C@@H]2C(=O)CO [Corticosterone, reference compound] | did not increase significantly

Same assay, conditions: odor stimulation vs no odor

Row | Compound | number of monocytes
21 | CC1=NCCS1 [2-Methyl-2-thiazoline] | increased

Tested on: neutrophils in the whole blood cells
Test: ratio of neutrophils in whole blood cells, Siemens Advia 120 (Examples 12, 13)
Type: in vivo, C57/BL6 mice
Conditions: 200 μl of 1% solution i.p., blood 16 hr later, vs saline
Method: About 3-month-old C57/BL6 mice were intraperitoneally injected with 200 μl of saline (control) or 1% solution of respective compounds (dissolved in saline). Blood was collected 16 hr later, and the ratio of neutrophils in the whole blood cells was measured using Siemens Advia 120.

Row | Compound | ratio of neutrophils in the whole blood cells
22 | Cc1oc2ccccc2c1C [2,3-Dimethylbenzofuran] | increases
23 | CC(=O)c1ccc(C)o1 [2-Acetyl-5-methylfuran] | increases
24 | Cc1nccnc1SCc1ccco1 [2-Furfurylthio-3-methylpyrazine] | increases
25 | SC1=NCCS1 [2-Mercaptothiazoline] | increases
26 | CC1=NCCS1 [2-Methyl-2-thiazoline] | increases
27 | CC(=O)c1ccncc1 [4-Acetylpyridine] | increases
28 | CCC1CSC(C)=N1 (stereo not drawn) [4-Ethyl-2-methyl-thiazoline] | increases
29 | Cc1cncs1 [5-Methylthiazole] | increases
30 | COc1ccc2ncccc2c1 [6-Methoxyquinoline] | increases
31 | C=CCN=C=S [Allyl isothiocyanate] | increases

Tested on: peripheral blood mononuclear cells (PBMC)
Test: scRNAseq classification of PBMC after intraperitoneal 2MT (Example 1)
Type: in vivo, C57/BL6 mice
Conditions: 200 μl of 1% 2MT solution i.p., blood 16 hr later, vs saline
Method: About 3-month-old C57/BL6 mice were intraperitoneally administered with 200 μl of saline (control) or 1% 2MT solution (dissolved in saline). Blood was collected 16 hr later, and peripheral blood mononuclear cells (PBMC) were separated using Ficoll Paque PREMIUM 1.084 (GE Healthcare). A single cell RNA cDNA library was prepared from the separated cells by using the 10× Chromium preparation system, Chromium Single Cell 3′ Library & Gel Bead Kit v3, and sequencing was performed using the illumina HiSeq. The obtained scRNAseq data was analyzed according to the method shown in Non-Patent Literatures 4 and 5. The results of clustering using the gene expression of each cell as an index were visualized by tSNE, and the results are shown in FIG. 1A-C.

Row | Compound | numbers of monocytes (Mono 1, Mono 2) and dendritic cells (DC)
32 | CC1=NCCS1 [2-Methyl-2-thiazoline] | drastically increases

Same assay, conditions: 200 μl of 1% 2MT solution i.p., blood 16 hr later; control 0.83%

Row | Compound | dendritic cells in PBMC [%]
33 | CC1=NCCS1 [2-Methyl-2-thiazoline] | 2.2

Same assay, conditions: 200 μl of 1% 2MT solution i.p., blood 16 hr later; control 3.7%

Row | Compound | percentage of monocytes in PBMC [%]
34 | CC1=NCCS1 [2-Methyl-2-thiazoline] | 23.7

Tested on: not listed separately
Test: blood stress hormone (Corticosterone) after 2MT stimulation
Type: in vivo
Conditions: not given

Row | Compound | blood stress hormone (Corticosterone)
35 | CC1=NCCS1 [2-Methyl-2-thiazoline] | increases

Tested on: lymphocytes in the whole blood cells
Test: ratio of lymphocytes in whole blood cells, Siemens Advia 120 (Example 15)
Type: in vivo, C57/BL6 mice
Conditions: 1% solution i.p., blood 16 hr later, vs saline
Method: About 3-month-old C57/BL6 mice were intraperitoneally injected with […] saline (control) or 1% solution of respective compounds (dissolved in saline). Blood was collected 16 hr later, and the ratio of lymphocytes in the whole blood cells was measured using Siemens Advia 120.

Row | Compound | ratio of lymphocytes in the whole blood cells
36 | CCC1CSC(C)=N1 (stereo not drawn) [4-Ethyl-2-methyl-thiazoline] | increases
37 | O=Cc1cncs1 [5-Formylthiazole] | increases
38 | Cc1cncs1 [5-Methylthiazole] | increases

Tested on: neutrophils in the peripheral blood
Test: number of neutrophils in peripheral blood, Siemens Advia 120 (Examples 4, 5)
Type: in vivo, C57/BL6 mice
Conditions: 200 μl of 1% solution i.p., blood 16 hr later, vs saline
Method: About 3-month-old C57/BL6 mice were intraperitoneally injected with 200 μl of saline (control) or 1% solution of respective compounds (dissolved in saline). Blood was collected 16 hr later, and the number of neutrophils in the peripheral blood was measured using Siemens Advia 120.

Row | Compound | neutrophils in the peripheral blood (number)
39 | Cc1ccc(C)s1 [2,5-Dimethylthiophene] | increase
40 | Cc1nccnc1SCc1ccco1 [2-Furfurylthio-3-methylpyrazine] | increase
41 | SC1=NCCS1 [2-Mercaptothiazoline] | increase
42 | CC1=NCCS1 [2-Methyl-2-thiazoline] | increase
43 | CC(=O)c1ccncc1 [4-Acetylpyridine] | increase
44 | CCC1CSC(C)=N1 (stereo not drawn) [4-Ethyl-2-methyl-thiazoline] | increase
45 | Cc1cncs1 [5-Methylthiazole] | increase
46 | COc1ccc2ncccc2c1 [6-Methoxyquinoline] | increase
47 | C=CCN=C=S [Allyl isothiocyanate] | increase
48 | C1COCCN1 [Morpholine] | increase

Tested on: monocytes in the whole blood cells
Test: ratio of monocytes in whole blood cells, Siemens Advia 120 (Examples 10, 11)
Type: in vivo, C57/BL6 mice
Conditions: 200 μl of 1% solution i.p., blood 16 hr later, vs saline
Method: About 3-month-old C57/BL6 mice were intraperitoneally injected with 200 μl of saline (control) or 1% solution of respective compounds (dissolved in saline). Blood was collected 16 hr later, and the ratio of monocytes in the whole blood cells was measured using Siemens Advia 120.
About 3-month-old C57/BL6 mice were intraperitoneally injected with 200 μl of saline (control) or 1% allyl isothiocyanate solution (dissolved in saline). Blood was collected 16 hr later, and the ratio of monocytes in the whole blood cells was measured using Siemens Advia 120.

Row | Compound | ratio of monocytes in the whole blood cells
49 | CC1CCC(C)O1 (stereo not drawn) [2,5-Dimethyltetrahydrofuran] | increases
50 | C=CCSC1=NCCS1 [2-(Allylthio)-2-thiazoline] | increases
51 | Cc1nccnc1SCc1ccco1 [2-Furfurylthio-3-methylpyrazine] | increases
52 | SC1=NCCS1 [2-Mercaptothiazoline] | increases
53 | CC1=NCCS1 [2-Methyl-2-thiazoline] | increases
54 | CC1OCCC1S (stereo not drawn) [2-Methyl-3-tetrahydrofuranthiol] | increases
55 | CC(=O)c1ccncc1 [4-Acetylpyridine] | increases
56 | CCC1CSC(C)=N1 (stereo not drawn) [4-Ethyl-2-methyl-thiazoline] | increases
57 | Cc1cncs1 [5-Methylthiazole] | increases
58 | COc1ccc2ncccc2c1 [6-Methoxyquinoline] | increases
59 | C=CCN=C=S [Allyl isothiocyanate] | increases

Tested on: lymphocytes in the peripheral blood
Test: number of lymphocytes in peripheral blood, Siemens Advia 120 (Example 9)
Type: in vivo, C57/BL6 mice
Conditions: 200 μl of 1% solution i.p., blood 16 hr later, vs saline
Method: About 3-month-old C57/BL6 mice were intraperitoneally injected with 200 μl of saline (control) or 1% solution of respective compounds (dissolved in saline). Blood was collected 16 hr later, and the number of lymphocytes in the peripheral blood was measured using Siemens Advia 120.

Row | Compound | number of lymphocytes in the peripheral blood
60 | Cc1cccnc1C [2,3-dimethylpyridine] | increases
61 | Cc1ccc(C)s1 [2,5-Dimethylthiophene] | increases
62 | CC(=O)c1cccc(C)n1 [2-Acetyl-6-methylpyridine] | increases
63 | O=S1(=O)CCN(c2ccccc2)CC1 [4-Phenyl-thiomorpholine-1,1-dioxide] | increases
64 | C1COCCN1 [Morpholine] | increases
65 | (−)-Ambroxide | increases

Tested on: monocytes in the peripheral blood
Test: number of monocytes in peripheral blood, Siemens Advia 120 (Examples 6, 7)
Type: in vivo, C57/BL6 mice
Conditions: 200 μl of 1% solution i.p., blood 16 hr later, vs saline
Method: About 3-month-old C57/BL6 mice were intraperitoneally injected with 200 μl of saline (control) or 1% solution of respective compounds (dissolved in saline). Blood was collected 16 hr later, and the number of monocytes in the peripheral blood was measured using Siemens Advia 120.
About 3-month-old C57/BL6 mice were intraperitoneally injected with 200 μl of saline (control) or 1% allyl isothiocyanate solution (dissolved in saline). Blood was collected 16 hr later, and the number of monocytes in the peripheral blood was measured using Siemens Advia 120.

Row | Compound | number of monocytes in the peripheral blood
66 | C=CCSC1=NCCS1 [2-(Allylthio)-2-thiazoline] | increase
67 | CC(=O)c1ncc(C)nc1C [2-Acetyl-3,5-dimethy pyrazine] | increase
68 | Cc1nccnc1SCc1ccco1 [2-Furfurylthio-3-methylpyrazine] | increase
69 | SC1=NCCS1 [2-Mercaptothiazoline] | increase
70 | CC1=NCCS1 [2-Methyl-2-thiazoline] | increase
71 | CC1OCCC1S (stereo not drawn) [2-Methyl-3-tetrahydrofuranthiol] | increase
72 | CC(=O)c1ccncc1 [4-Acetylpyridine] | increase
73 | O=S1(=O)CCN(c2ccccc2)CC1 [4-Phenyl-thiomorpholine-1,1-dioxide] | increase
74 | COc1ccc2ncccc2c1 [6-Methoxyquinoline] | increase
75 | C=CCN=C=S [Allyl isothiocyanate] | increases
76 | C1COCCN1 [Morpholine] | increase

Tested on: neutrophils in the peripheral blood
Test: flow cytometry of neutrophils in peripheral blood, 2MT i.p./odor, corticosterone (Example 3)
Type: in vivo, C57/BL6 mice
Conditions: intraperitoneal injection vs saline i.p., blood 16 hr later
Method: as §1

Row | Compound | number of neutrophils
77 | CC1=NCCS1 [2-Methyl-2-thiazoline] | increased
78 | C[C@]12C[C@H](O)[C@H]3[C@@H](CCC4=CC(=O)CC[C@@]43C)[C@@H]1CC[C@@H]2C(=O)CO [Corticosterone, reference compound] | decreased

Same assay, conditions: odor stimulation vs no odor

Row | Compound | number of neutrophils
79 | CC1=NCCS1 [2-Methyl-2-thiazoline] | increased
